Tests used:
Assay type in all cases: in vivo
[1] = test system: barnyardgrass (Echinochloa crus-galli); experiment: Test A pre-/postemergence plant response
Outline: (§1)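 Visually rated 0–100 injury (100 = complete control) versus untreated plants, ~10 days in greenhouse. Application pre- (soil spray, loam/sand) and postemergence (2–10 cm, 1–2 leaf stage), same timepoint.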

[2] = test system: corn (Zea mays); experiment: Test A pre-/postemergence plant response
Outline: as §1

[3] = test system: giant foxtail (Setaria faberii); experiment: Test A pre-/postemergence plant response
Outline: as §1

[4] = test system: large crabgrass (Digitaria sanguinalis); experiment: Test A pre-/postemergence plant response
Outline: as §1

[5] = test system: morningglory (Ipomoea spp.); experiment: Test A pre-/postemergence plant response
Outline: as §1

[6] = test system: pigweed (Amaranthus retroflexus); experiment: Test A pre-/postemergence plant response
Outline: as §1

[7] = test system: velvetleaf (Abutilon theophrasti); experiment: Test A pre-/postemergence plant response
Outline: as §1

[8] = test system: wheat (Triticum aestivum); experiment: Test A pre-/postemergence plant response
Outline: as §1

[9] = test system: barnyardgrass (Echinochloa crus-galli); experiment: Test B flooded paddy test; conditions: for Plant response rating, Flood, Barnyardgrass: 250 g ai/ha, flooded paddy test, visual rating on 0 to 100 scale (0 no effect, 100 complete control) after 13 to 15 days; for Plant response rating, Barnyardgrass: Flood (flooded paddy test), 13 to 15 days; for Barnyardgrass plant response rating: Flood, 31 g ai/ha, scale 0 to 100 (0 no effect, 100 complete control)
Outline: (§2)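 Flooded-pot test: water raised to 3 cm above soil when treating, compound put in the water, level unchanged thereafter. Plants were at 2 leaves. Readout after 13 to 15 days, visual, relative to controls; 0 signifies no effect and 100 complete control.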

[10] = test system: ducksalad (Heteranthera limosa); experiment: Test B flooded paddy test; conditions: for Plant response rating, Flood, Ducksalad: 250 g ai/ha, flooded paddy test, visual rating on 0 to 100 scale (0 no effect, 100 complete control) after 13 to 15 days; for Plant response rating, Ducksalad: Flood (flooded paddy test), 13 to 15 days; for Ducksalad plant response rating: Flood, 31 g ai/ha, scale 0 to 100 (0 no effect, 100 complete control)
Outline: as §2

[11] = test system: rice (Oryza sativa); experiment: Test B flooded paddy test; conditions: for Plant response rating, Flood, Rice: 250 g ai/ha, flooded paddy test, visual rating on 0 to 100 scale (0 no effect, 100 complete control) after 13 to 15 days; for Plant response rating, Rice: Flood (flooded paddy test), 13 to 15 days; for Rice plant response rating: Flood, 31 g ai/ha, scale 0 to 100 (0 no effect, 100 complete control)
Outline: as §2

[12] = test system: umbrella sedge (Cyperus difformis); experiment: Test B flooded paddy test; conditions: for Plant response rating, Flood, Sedge, Umbrella: 250 g ai/ha, flooded paddy test, visual rating on 0 to 100 scale (0 no effect, 100 complete control) after 13 to 15 days; for Plant response rating, Sedge, Umbrella: Flood (flooded paddy test), 13 to 15 days; for Sedge, Umbrella plant response rating: Flood, 31 g ai/ha, scale 0 to 100 (0 no effect, 100 complete control)
Outline: as §2

[13] = Postemergence, 125 g ai/ha, 0 to 100 scale where 0 is no effect and 100 is complete control
[14] = Postemergence, 500 g ai/ha, 0 to 100 scale, 0 = no effect, 100 = complete control, approx. ten days
[15] = Preemergence, 125 g ai/ha, 0 to 100 scale, 0 = no effect, 100 = complete control
[16] = Preemergence, 500 g ai/ha, visual injury, 0 to 100 scale (0 no effect, 100 complete control), approx. ten days
[17] = 62 g ai/ha, scale of 0 to 100 where 0 is no effect and 100 is complete control
[18] = Postemergence, 500 g ai/ha, visual injury, 0 to 100 scale (0 no effect, 100 complete control), approx. ten days
[19] = Preemergence, 500 g ai/ha, 0 to 100 scale, 0 = no effect, 100 = complete control
[20] = 125 g ai/ha, scale 0 to 100, 0 is no effect, 100 is complete control
[21] = Postemergence, 125 g ai/ha, visual injury, 0 to 100 scale (0 no effect, 100 complete control), approx. ten days
[22] = 62 g ai/ha, scale 0 to 100, 0 is no effect, 100 is complete control

COCCn1c(-c2ccn(C)n2)ncc(C(=O)C2=C(O)CCCC2=O)c1=O [Compound 136]
Plant response rating, Barnyardgrass [1, 13]: 30 | Plant response rating, Barnyardgrass [1, 14]: 80 | Plant response rating, Barnyardgrass [1, 15]: 0 | Plant response rating, Barnyardgrass [1, 16]: 60 | Plant response rating, Corn [2, 13]: 0 | Plant response rating, Corn [2, 14]: 0 | Plant response rating, Corn [2, 15]: 0 | Plant response rating, Corn [2, 16]: 0 | Plant response rating, Foxtail, Giant [3, 13]: 30 | Plant response rating, Foxtail, Giant [3, 14]: 50 | Plant response rating, Foxtail, Giant [3, 15]: 0 | Plant response rating, Foxtail, Giant [3, 16]: 0 | Plant response rating, Crabgrass, Large [4, 13]: 80 | Plant response rating, Crabgrass, Large [4, 14]: 90 | Plant response rating, Crabgrass, Large [4, 15]: 20 | Plant response rating, Crabgrass, Large [4, 16]: 60 | Plant response rating, Morningglory [5, 13]: 100 | Plant response rating, Morningglory [5, 14]: 100 | Plant response rating, Morningglory [5, 15]: 30 | Plant response rating, Morningglory [5, 16]: 60 | Plant response rating, Pigweed [6, 13]: 80 | Plant response rating, Pigweed [6, 14]: 100 | Plant response rating, Pigweed [6, 15]: 80 | Plant response rating, Pigweed [6, 16]: 100 | Plant response rating, Velvetleaf [7, 13]: 100 | Plant response rating, Velvetleaf [7, 14]: 100 | Plant response rating, Velvetleaf [7, 15]: 70 | Plant response rating, Velvetleaf [7, 16]: 100 | Plant response rating, Wheat [8, 13]: 0 | Plant response rating, Wheat [8, 14]: 0 | Plant response rating, Wheat [8, 15]: 0 | Plant response rating, Wheat [8, 16]: 0 | Plant response rating, Flood, Barnyardgrass [9]: 25 | Plant response rating, Barnyardgrass [9, 17]: 20 | Plant response rating, Flood, Ducksalad [10]: 75 | Plant response rating, Ducksalad [10, 17]: 55 | Plant response rating, Flood, Rice [11]: 20 | Plant response rating, Rice [11, 17]: 15 | Plant response rating, Flood, Sedge, Umbrella [12]: 50 | Plant response rating, Sedge, Umbrella [12, 17]: 45

O=C1CCCC(O)=C1C(=O)c1cnc(-c2cc(F)cc(F)c2)n(CC2CCCCC2)c1=O [Compound 163]
Plant response rating, Barnyardgrass [1, 13]: 50 | Barnyardgrass plant response rating [1, 18]: 100 | Plant response rating, Barnyardgrass [1, 15]: 0 | Plant response rating, Barnyardgrass [1, 19]: 20 | Plant response rating, Corn [2, 13]: 0 | Corn plant response rating [2, 18]: 20 | Plant response rating, Corn [2, 15]: 0 | Plant response rating, Corn [2, 19]: 0 | Plant response rating, Foxtail, Giant [3, 13]: 20 | Foxtail, Giant plant response rating [3, 18]: 50 | Plant response rating, Foxtail, Giant [3, 15]: 0 | Plant response rating, Foxtail, Giant [3, 19]: 10 | Plant response rating, Crabgrass, Large [4, 13]: 60 | Crabgrass, Large plant response rating [4, 18]: 90 | Plant response rating, Crabgrass, Large [4, 15]: 0 | Plant response rating, Crabgrass, Large [4, 19]: 10 | Plant response rating, Morningglory [5, 13]: 10 | Morningglory plant response rating [5, 18]: 100 | Plant response rating, Morningglory [5, 15]: 0 | Plant response rating, Morningglory [5, 19]: 0 | Plant response rating, Pigweed [6, 13]: 80 | Pigweed plant response rating [6, 18]: 100 | Plant response rating, Pigweed [6, 15]: 0 | Plant response rating, Pigweed [6, 19]: 60 | Plant response rating, Velvetleaf [7, 13]: 100 | Velvetleaf plant response rating [7, 18]: 100 | Plant response rating, Velvetleaf [7, 15]: 10 | Plant response rating, Velvetleaf [7, 19]: 50 | Plant response rating, Wheat [8, 13]: 0 | Wheat plant response rating [8, 18]: 0 | Plant response rating, Wheat [8, 15]: 0 | Plant response rating, Wheat [8, 19]: 0 | Plant response rating, Barnyardgrass [9, 20]: 0 | Barnyardgrass plant response rating [9]: 0 | Plant response rating, Ducksalad [10, 20]: 60 | Ducksalad plant response rating [10]: 30 | Plant response rating, Rice [11, 20]: 20 | Rice plant response rating [11]: 10 | Plant response rating, Sedge, Umbrella [12, 20]: 70 | Sedge, Umbrella plant response rating [12]: 70

CCc1ccc(-n2c(-c3cccc(Br)c3)ncc(C(=O)C3=C(O)CCCC3=O)c2=O)cc1 [Compound 175]
Plant response rating, Barnyardgrass [1, 13]: 50 | Barnyardgrass plant response rating [1, 18]: 100 | Plant response rating, Barnyardgrass [1, 15]: 0 | Plant response rating, Barnyardgrass [1, 19]: 30 | Plant response rating, Corn [2, 13]: 0 | Corn plant response rating [2, 18]: 20 | Plant response rating, Corn [2, 15]: 0 | Plant response rating, Corn [2, 19]: 0 | Plant response rating, Foxtail, Giant [3, 13]: 30 | Foxtail, Giant plant response rating [3, 18]: 80 | Plant response rating, Foxtail, Giant [3, 15]: 0 | Plant response rating, Foxtail, Giant [3, 19]: 50 | Plant response rating, Crabgrass, Large [4, 13]: 40 | Crabgrass, Large plant response rating [4, 18]: 80 | Plant response rating, Crabgrass, Large [4, 15]: 30 | Plant response rating, Crabgrass, Large [4, 19]: 50 | Plant response rating, Morningglory [5, 13]: 10 | Morningglory plant response rating [5, 18]: 80 | Plant response rating, Morningglory [5, 15]: 0 | Plant response rating, Morningglory [5, 19]: 10 | Plant response rating, Pigweed [6, 13]: 100 | Pigweed plant response rating [6, 18]: 100 | Plant response rating, Pigweed [6, 15]: 60 | Plant response rating, Pigweed [6, 19]: 100 | Plant response rating, Velvetleaf [7, 13]: 100 | Velvetleaf plant response rating [7, 18]: 100 | Plant response rating, Velvetleaf [7, 15]: 40 | Plant response rating, Velvetleaf [7, 19]: 50 | Plant response rating, Wheat [8, 13]: 0 | Wheat plant response rating [8, 18]: 0 | Plant response rating, Wheat [8, 15]: 0 | Plant response rating, Wheat [8, 19]: 0 | Plant response rating, Barnyardgrass [9, 20]: 20 | Barnyardgrass plant response rating [9]: 0 | Plant response rating, Ducksalad [10, 20]: 95 | Ducksalad plant response rating [10]: 75 | Plant response rating, Rice [11, 20]: 0 | Rice plant response rating [11]: 0 | Plant response rating, Sedge, Umbrella [12, 20]: 85 | Sedge, Umbrella plant response rating [12]: 75

COc1ccccc1-n1c(-c2ccccc2)ncc(C(=O)C2=C(O)CCCC2=O)c1=O [Compound 15]
Barnyardgrass plant response rating [1, 21]: 10 | Plant response rating, Barnyardgrass [1, 14]: 40 | Plant response rating, Barnyardgrass [1, 15]: 10 | Plant response rating, Barnyardgrass [1, 16]: 90 | Corn plant response rating [2, 21]: 0 | Plant response rating, Corn [2, 14]: 10 | Plant response rating, Corn [2, 15]: 0 | Plant response rating, Corn [2, 16]: 0 | Foxtail, Giant plant response rating [3, 21]: 10 | Plant response rating, Foxtail, Giant [3, 14]: 70 | Plant response rating, Foxtail, Giant [3, 15]: 40 | Plant response rating, Foxtail, Giant [3, 16]: 70 | Crabgrass, Large plant response rating [4, 21]: 20 | Plant response rating, Crabgrass, Large [4, 14]: 70 | Plant response rating, Crabgrass, Large [4, 15]: 40 | Plant response rating, Crabgrass, Large [4, 16]: 90 | Morningglory plant response rating [5, 21]: 10 | Plant response rating, Morningglory [5, 14]: 50 | Plant response rating, Morningglory [5, 15]: 0 | Plant response rating, Morningglory [5, 16]: 60 | Pigweed plant response rating [6, 21]: 60 | Plant response rating, Pigweed [6, 14]: 90 | Plant response rating, Pigweed [6, 15]: 30 | Plant response rating, Pigweed [6, 16]: 90 | Velvetleaf plant response rating [7, 21]: 100 | Plant response rating, Velvetleaf [7, 14]: 100 | Plant response rating, Velvetleaf [7, 15]: 40 | Plant response rating, Velvetleaf [7, 16]: 90 | Wheat plant response rating [8, 21]: 0 | Plant response rating, Wheat [8, 14]: 20 | Plant response rating, Wheat [8, 15]: 0 | Plant response rating, Wheat [8, 16]: 20 | Plant response rating, Flood, Barnyardgrass [9]: 35 | Plant response rating, Barnyardgrass [9, 22]: 20 | Plant response rating, Flood, Ducksalad [10]: 60 | Plant response rating, Ducksalad [10, 22]: 0 | Plant response rating, Flood, Rice [11]: 0 | Plant response rating, Rice [11, 22]: 0 | Plant response rating, Flood, Sedge, Umbrella [12]: 30 | Plant response rating, Sedge, Umbrella [12, 22]: 0

Reference: patent US8952024B2, “Herbicidal pyrimidone derivatives” (E I du Pont de Nemours and Company, priority 2009, dated 2015)
